In patent publication US20240418701A1, “SINGLE MOLECULE IDEN[…] A REACTIVE HETERO-NANOPORE” (priority 2021, published 2024):
Where “and” joins values, the source holds several entries; their conditions need not be identical. Equal entries are not always repeated.

Tests used:
[1] = target: T1, MspA-PBA (phenylboronic acid modified hetero-octameric (N90C)1(M2)7 MspA) (Mycolicibacterium smegmatis, UniProt A0QR29, D117C/D118N/D120N/D145R/D161R/E166K); assay: Single channel recording of L-Sorbose binding to MspA-PBA nanopore; parameters: species or system Mycobacterium smegmatis; details: for 1/τoff Mean / 1/τon Mean / Amplitude of L-Sorbose events, Current, Mean: N=3
T1 construct: H6 (hexa-histidine) (C); 3-(maleimide) phenylboronic acid (MPBA) adduct on the thiol of Cys90; made in house; host or cells: E. coli BL21 (DE3) pLysS, co-expression from pETDuet-1

octameric M2 MspA-D16H6 = target: T2, octameric M2 MspA-D16H6 (Mycolicibacterium smegmatis, UniProt A0QR29, D117N/D118N/D120N/D145R/D161R/E166K); assay: L-Sorbose sensing by octameric M2 MspA-D16H6 (control without PBA); format: binding, Mycobacterium smegmatis; details: L-Sorbose 50 mM in cis, +160 mV
T2 construct: D16 (16 consecutive aspartic acids) (C); H6 (hexa-histidine) (C); made in house; host or cells: E. coli BL21 (DE3) pLysS, pET-30a(+)
T2 sequence (A0QR29 other isoform, or with tags, fused parts or gaps D117N/D118N/D120N/D145R/D161R/E166K): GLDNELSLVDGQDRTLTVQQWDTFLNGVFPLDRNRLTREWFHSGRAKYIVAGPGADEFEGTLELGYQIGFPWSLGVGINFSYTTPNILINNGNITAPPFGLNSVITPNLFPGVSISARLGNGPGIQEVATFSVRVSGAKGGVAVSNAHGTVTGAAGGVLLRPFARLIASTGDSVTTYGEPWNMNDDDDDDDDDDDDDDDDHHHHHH
Experimental: FIG. 11: L-Sorbose sensing by an octameric M2 MspA-D16H6. L-Sorbose sensing was performed with an octameric M2 MspA-D16H6 in a 1.5 M KCl, 10 mM MOPS, pH7.0 buffer. A +160 mV bias was continually applied.
L-Sorbose is a monosaccharide ketose. It exists in all living species, ranging from bacteria to human^50. The commercial production of vitamin C (ascorbic acid) often begins with L-Sorbose^51. To further verify the existence of a PBA in the lumen of the pore, MspA-PBA was used to sense L-Sorbose. The measurement was performed with a single MspA-PBA and a 1.5 M KCl, 10 mM MOPS, pH 7.0 buffer with the continuous application of a +160 m V bias. The addition of L-Sorbose to cis to a 10 mM final concentration resulted immediately in the consecutive appearance of long residing resistive pulse events (FIGS. 1d-1f, Supplementary Video 1). […] In this way, it was confirmed that the introduction of a PBA to the pore lumen is critical for the generation of saccharide sensing events.
The measurement device is composed of two custom-made polyformaldehyde chambers separated by a ˜20 μm-thick Teflon film with a drilled aperture (˜100 μm in diameter). Before the measurement, the aperture was first treated with 0.5% (v/v) hexadecane in pentane and set for evaporation of the pentane. […] All events were detected by the “single channel research” function in Clampfit 10.7. […]

[2] = L-Sorbose 400 μM in cis, +160 mV
[3] = L-Sorbose 800 μM in cis, +160 mV
[4] = L-Sorbose 1200 μM in cis, +160 mV
[5] = L-Sorbose 1600 μM in cis, +160 mV
[6] = L-Sorbose 2000 μM in cis, +160 mV

In the case of `O=C(CO)[C@@H](O)[C@H](O)[C@@H](O)CO` [L-Sorbose, L-(−)-Sorbose], the “Amplitude of L-Sorbose events, Current, Pore1” value (“Amplitude … Pore1” for short) ([1]; 40 mV, L-Sorbose 5 mM in cis) is reported as 29.3 ± 0.0005 pA, the “Amplitude of L-Sorbose events, Current, Pore2” value (from here on “Amplitude … Pore2”) ([1]; 40 mV, L-Sorbose 5 mM in cis) is reported as 29.05 ± 0.0005 pA and the “Amplitude of L-Sorbose events, Current, Pore3” value (from here on “Amplitude … Pore3”) ([1]; 40 mV, L-Sorbose 5 mM in cis) is reported as 29.2 ± 0.002 pA. The “1/τoff Mean” value ([1]; 40 mV, L-Sorbose 5 mM in cis) was 5.06E−04 ms^−1, the “1/τon Mean” value ([1]; 40 mV, L-Sorbose 5 mM in cis) was 7.9E−04 ms^−1 and the “Amplitude of L-Sorbose events, Current, Mean” value (from here on “Amplitude … Mean”) ([1]; 40 mV, L-Sorbose 5 mM in cis) was 29.2 pA. For the same molecule, the “Amplitude … Pore1” value ([1]; 70 mV, L-Sorbose 5 mM in cis) was 54.5 ± 0.010 pA, the “Amplitude … Pore2” value ([1]; 70 mV, L-Sorbose 5 mM in cis) was 52.7 ± 0.0008 pA and the “Amplitude … Pore3” value ([1]; 70 mV, L-Sorbose 5 mM in cis) was 52.5 ± 0.0008 pA. The “1/τoff Mean” value ([1]; 70 mV, L-Sorbose 5 mM in cis) was 4.3E−04 ms^−1, the “1/τon Mean” value ([1]; 70 mV, L-Sorbose 5 mM in cis) was 7.4E−04 ms^−1 and the “Amplitude … Mean” value ([1]; 70 mV, L-Sorbose 5 mM in cis) was 53.08 pA. For the same molecule, the “Amplitude … Pore1” value ([1]; 100 mV, L-Sorbose 5 mM in cis) was 74.6 ± 0.002 pA, the “Amplitude … Pore2” value ([1]; 100 mV, L-Sorbose 5 mM in cis) was 73.2 ± 0.009 pA and the “Amplitude … Pore3” value ([1]; 100 mV, L-Sorbose 5 mM in cis) was 73.3 ± 0.002 pA. The “1/τoff Mean” value ([1]; 100 mV, L-Sorbose 5 mM in cis) was 4.04E−04 ms^−1, the “1/τon Mean” value ([1]; 100 mV, L-Sorbose 5 mM in cis) was 8.7E−04 ms^−1 and the “Amplitude … Mean” value ([1]; 100 mV, L-Sorbose 5 mM in cis) was 73.7 pA. For the same molecule, the “Amplitude … Pore1” value ([1]; 130 mV, L-Sorbose 5 mM in cis) was 91.6 ± 0.003 pA, the “Amplitude … Pore2” value ([1]; 130 mV, L-Sorbose 5 mM in cis) was 90.3 ± 0.004 pA and the “Amplitude … Pore3” value ([1]; 130 mV, L-Sorbose 5 mM in cis) was 90.3 ± 0.004 pA. The “1/τoff Mean” value ([1]; 130 mV, L-Sorbose 5 mM in cis) was 3.8E−04 ms^−1, the “1/τon Mean” value ([1]; 130 mV, L-Sorbose 5 mM in cis) was 8.4E−04 ms^−1 and the “Amplitude … Mean” value ([1]; 130 mV, L-Sorbose 5 mM in cis) was 90.8 pA. For the same molecule, the “Amplitude … Pore1” value ([1]; 160 mV, L-Sorbose 5 mM in cis) was 107.7 ± 0.005 pA, the “Amplitude … Pore2” value ([1]; 160 mV, L-Sorbose 5 mM in cis) was 104.9 ± 0.006 pA and the “Amplitude … Pore3” value ([1]; 160 mV, L-Sorbose 5 mM in cis) was 105.3 ± 0.006 pA. For the same molecule, the “1/τoff Mean” value ([1]; 160 mV, L-Sorbose 5 mM in cis) was 2.9E−04 ms^−1, the “1/τon Mean” value ([1]; 160 mV, L-Sorbose 5 mM in cis) was 8.5E−04 ms^−1 and the “Amplitude … Mean” value ([1]; 160 mV, L-Sorbose 5 mM in cis) was 105.9 pA. For the same molecule, the “Amplitude … Pore1” value ([1]; 190 mV, L-Sorbose 5 mM in cis) was 122.9 ± 0.007 pA, the “Amplitude … Pore2” value ([1]; 190 mV, L-Sorbose 5 mM in cis) was 116.7 ± 0.008 pA and the “Amplitude … Pore3” value ([1]; 190 mV, L-Sorbose 5 mM in cis) was 120.7 ± 0.010 pA. For the same molecule, the “1/τoff Mean” value ([1]; 190 mV, L-Sorbose 5 mM in cis) was 2.9E−04 ms^−1, the “1/τon Mean” value ([1]; 190 mV, L-Sorbose 5 mM in cis) was 8.3E−04 ms^−1 and the “Amplitude … Mean” value ([1]; 190 mV, L-Sorbose 5 mM in cis) was 120.13 pA. For the same molecule, the “Amplitude … Pore1” value ([1]; 220 mV, L-Sorbose 5 mM in cis) was 143.6 ± 0.02 pA, the “Amplitude … Pore2” value ([1]; 220 mV, L-Sorbose 5 mM in cis) was 132.9 ± 0.02 pA and the “Amplitude … Pore3” value ([1]; 220 mV, L-Sorbose 5 mM in cis) was 137.2 ± 0.013 pA. For the same molecule, the “1/τoff Mean” value ([1]; 220 mV, L-Sorbose 5 mM in cis) was 3.4E−04 ms^−1, the “1/τon Mean” value ([1]; 220 mV, L-Sorbose 5 mM in cis) was 8.07E−04 ms^−1 and the “Amplitude … Mean” value ([1]; 220 mV, L-Sorbose 5 mM in cis) was 137.9 pA. The “blockage amplitude (ΔI) / current drop of L-Sorbose sensing events” value ([1]; +160 mV, L-Sorbose 10 mM in cis) was ~100 pA and ~102 pA, the “1/τoff Mean” value [1, 2] was 2.9E−04 ms^−1 and the “1/τon Mean” value [1, 2] was 5.10E−05 ms^−1. The “1/τoff Mean” value [1, 3] was 2.9E−04 ms^−1, the “1/τon Mean” value [1, 3] was 1.03E−04 ms^−1 and the “1/τoff Mean” value [1, 4] was 3.08E−04 ms^−1. For the same molecule, the “1/τon Mean” value [1, 4] was 1.7E−04 ms^−1, the “1/τoff Mean” value [1, 5] was 3.11E−04 ms^−1 and the “1/τon Mean” value [1, 5] was 2.2E−04 ms^−1. For the same molecule, the “1/τoff Mean” value [1, 6] was 2.9E−04 ms^−1, the “1/τon Mean” value [1, 6] was 3.07E−04 ms^−1 and the “1/τoff Mean” value ([1]; −40 mV, L-Sorbose 5 mM in cis) was 5.01E−04 ms^−1. For the same molecule, the “1/τon Mean” value ([1]; −40 mV, L-Sorbose 5 mM in cis) was 7.6E−04 ms^−1 and the “resistive pulse events with M2 MspA” value (octameric M2 MspA-D16H6) was “failed to cause any resistive pulse events”.
